According to US12496361B2, “Imaging compounds for detecting or imaging senescent cells” (University of Dundee, priority 2023, dated 2025):

Assays:
[1] = tested on: HBEC CDC6 Tet-ON cells; test: Detection of senescent cells in cell cultures by fluorescent microscopy; format: cell-based
Experimental: (§1) 1-Ethyl-2-((E)-2-((E)-3-((E)-2-(1-ethyl-3,3-dimethylindolin-2-ylidene)ethylidene)-2-((4-(4-((2-methyl-6-((E)-(4-((E)-phenyldiazenyl)naphthalen-1-yl)diazenyl)-2,3-dihydro-1H-perimidin-2-yl)methoxy)-4-oxobutanamido)butyl)amino)cyclohex-1-en-1-yl)vinyl)-3,3-dimethyl-3H-indol-1-ium iodide (15, Scheme 2, Example 2) was used to detect senescent cells in cell spreads using fluorescent microscopy (FIG. 1).
(§2) Li-Fraumeni-p21^WAF1/Cip1 or HBEC-CDC6 Tet-ON cellular systems were grown on cover slips and collected before and after the mentioned respective treatments for induction of senescence. Cover slips were treated as follows: • a) Cell spreads, immobilized preferably on a microscopy coverslip, are fixed in 4% paraformaldehyde (PFA) for 10 minutes at 4° C.; • b) Wash with PBS; • c) Cell membrane permeabilization: Immerse coverslips in solution of 0.3% Triton-X 100 diluted in PBS for 15 minutes; • d) Wash with PBS; • e) Apply compound of formula I on cells for 10 minutes in dark conditions; • f) Wash 3 times with fresh wash buffer [PBS/DMSO (2.5%)/TWEEN-20 (2.5%)]; • g) Incubate cells with 0.3% Triton-X 100 diluted in PBS for 3 minutes; • h) Wash with PBS; • i) Apply DAPI 1/5000 for 5 minutes in dark condition; • j) Rinse samples with dH2O for 30 seconds; • k) Cover section using a mounting medium for immunofluorescence.

[2] = tested on: Li-Fraumeni-p21^WAF1/Cip1 Tet-ON cells; test: as above; format: cell-based
Experimental: as §1, §2

[3] = tested on: senescent cells in human tissue sections (irradiated laryngeal, chemotherapy-treated breast, aged liver); test: Detection of senescent cells in tissue sections by fluorescent microscopy, human clinical settings; conditions: chemotherapy-treated breast tissues, liver specimens from aged individuals versus respective controls, FFPE sections
Description: as §1, with “tissue sections by” for “cell spreads using”, “microscopy.” for “microscopy (FIG. 1).”
(§3) Tissue sections were obtained from paraffin embedded, formalin fixed of: (A) irradiated human laryngeal tumors, (B) chemotherapy-treated breast tissues, (C) liver specimens from aged versus young individuals, (D) K-ras^V12 induced lung adenomas, (E) Palbociclib-treated human melanoma xenografts, and (F) Bleomycin-induced lung fibrosis mouse model, with established presence of senescent cells. Subsequently, they were immobilized on glass microscopy slides by standard procedures and processed as follows: • i. Section deparaffinization through a 30 minutes incubation at 60° C., followed by washing in xylene for 15 minutes at room temperature. • ii. Gradual rehydration of biopsy material, usually fixed tissues, in solutions of descending concentration of ethanol (100%, 96%, 80%, 70%, 50% v/v) for 5 minutes each step and finally in Phosphate-buffered saline (PBS) buffering solution; • iii. Antigen retrieval by heating in citrate acid solution 10 mM, pH=6. […]

[4] = tested on: senescent cells in tissue sections of murine models (K-ras^V12-induced lung adenomas, palbociclib-treated human melanoma xenografts, bleomycin-induced lung …); test: Detection of senescent cells in tissue sections by fluorescent microscopy, murine models; conditions: bleomycin-treated lungs
Description: as §1, with “tissue sections by” for “cell spreads using”, “microscopy.” for “microscopy (FIG. 1).”
as §3

[5] = tested on: HBEC CDC6 Tet-ON cells; test: Detection by flow cytometry of senescent cells in cell culture; format: cell-based; conditions: with or without Doxycycline; anti-Ki67-Pacific blue only (HBEC cells do not express p16^INK4A)
Experimental: as §1, with “senescent cultured” for “senescent”, “by flow cytometry.” for “in cell spreads using fluorescent microscopy (FIG. 1).”
(§4) Li-Fraumeni-p21^WAF1/Cip1 or HBEC-CDC6 Tet-ON cellular systems were grown in culture without or with Doxycyclin to induce senescence. Subsequently cells were treated and assessed as follows: • 1. Harvest cells from culture. • 2. Centrifuge at 1200 rpm for 5 min at RT. • 3. Wash ×1 in 5 ml PBS at RT. • 4. Resuspend cell pellet in 4% PFA and incubate them for 15 min in RT (fixation) • 5. Centrifuge at 1200 rpm for 5 min at RT. • 6. Resuspend cell pellet in 0.3% Triton-X/PBS and incubate it for 15 min at RT. • 7. Wash ×1 in 2 ml PBS at RT • 8. Centrifuge at 1200 rpm for 5 min at RT. • 9. Incubate samples with 100 μl of GLF16 for 8 min under gently shaking in dark condition • 10. Add 2 ml of wash buffer [PBS/DMSO (2.5%)/TWEEN-20 (2.5%)] and centrifuge at 1200 rpm for 5 min at RT (×2) • 11. Incubate with primary-conjugated antibody/ies for 20 min RT • 12. Centrifuge at 1200 rpm for 5 min at RT (×2) • 13. Apply flow cytometry buffer (PBS/5% FBS)

[6] = tested on: Li-Fraumeni-p21^WAF1/Cip1 Tet-ON cells; test: as above; format: cell-based; conditions: with or without Doxycycline; anti-Ki67-Pacific blue and anti-p16^INK4A-APC; 3 independent experiments
Experimental: as §1, with “senescent cultured” for “senescent”, “by flow cytometry.” for “in cell spreads using fluorescent microscopy (FIG. 1).”
as §4

CCN1/C(=C/C=C2\CCCC(/C=C/C3=[N+](CC)c4ccccc4C3(C)C)=C2NCCCCNC(=O)CCC(=O)OCC2(C)Nc3cccc4c(/N=N/c5ccc(/N=N/c6ccccc6)c6ccccc56)ccc(c34)N2)C(C)(C)c2ccccc21 (stereo not shown) [GLF16, 1-ethyl-2-((E)-2-((E)-3-((E)-2-(1-ethyl-3,3-dimethylindolin-2-ylidene)ethylidene)-2-((4-(4-((2-methyl-6-((E)-(4-((E)-phenyldiazenyl)naphthalen-1-yl)diazenyl)-2,3-dihydro-1H-perimidin-2-yl)methoxy)-4-oxobutanamido)butyl)amino)cyclohex-1-en-1-yl)vinyl)-3,3-dimethyl-3H-indol-1-ium iodide]
specificity: co-staining with p21^WAF1/Cip and Ki67 ([1]; (+) Doxycycline, FIG. 2 panels F, G): concordant staining presence of the senescence associated factors
staining of senescent cells ([1]; FIG. 2 panel E, (-) Doxycycline as negative control): successful application
specificity: co-staining with p16^INK4A and Ki67 ([2]; (+) Doxycycline, FIG. 2 panels B, C): concordant staining presence of the senescence associated factors
co-staining with the proliferative marker Ki67 ([2]; FIG. 2C): inverse relationship between GLF16 and Ki67 positivity
GLF16 staining signal ([2]; cells treated or not with Doxycycline for 6-8 days, fixed, permeabilized, confocal microscope): intense cytoplasmic signal (corresponding to lipofuscin aggregates) abundant in senescent cells and entirely absent in untreated ones
GLF16-positive cells in tissue [3]: abundant in GLF16-positive cells while in respective controls these positive cells were totally absent
concurrent staining with Ki67, p21^WAF1/Cip1 and p16^INK4A ([4]; FIG. 3 G-I, tissue per panel not stated except H): coincided with p16^INKA4 or p21^WAF1/Cip1 but not with Ki67
GLF16 (lipofuscin) positive macrophages ([4]; FIG. 3H): positive macrophages in bleomycin-treated lungs are also evident
co-detection of GLF16 with senescence markers in gated GLF16 (+) and (-) cells [5]: co-detection of GLF16 and senescence markers (p16^INK4A and absence of Ki67) in the senescent population (induced cells)
co-detection of GLF16 with senescence markers in gated GLF16 (+) and (-) cells [6]: co-detection of GLF16 and senescence markers (p16^INK4A and absence of Ki67) in the senescent population (induced cells)
